Test results from paper PMC8011931, “Identification, Structure–Activity Relationship, and Biological Characterization of 2,3,4,5-Tetrahydro-1H-pyrido[4,3-b]indoles as a Novel Class of CFTR Potentiators” (Journal of Medicinal Chemistry, 2020).

How the values were obtained:
Format in all cases: cell-based
F508del-CFTR = F508del-CFTR (Homo sapiens, UniProt P13569, DEL508-508); experiment: HS-YFP assay on F508del-CFTR CFBE41o- cells, acute stimulation; set-up: expressed in transfected cells; settings: acute stimulation in the presence of forskolin, Figure 4A
Chain of F508del-CFTR (P13569 with tags, fused parts or gaps DEL508-508): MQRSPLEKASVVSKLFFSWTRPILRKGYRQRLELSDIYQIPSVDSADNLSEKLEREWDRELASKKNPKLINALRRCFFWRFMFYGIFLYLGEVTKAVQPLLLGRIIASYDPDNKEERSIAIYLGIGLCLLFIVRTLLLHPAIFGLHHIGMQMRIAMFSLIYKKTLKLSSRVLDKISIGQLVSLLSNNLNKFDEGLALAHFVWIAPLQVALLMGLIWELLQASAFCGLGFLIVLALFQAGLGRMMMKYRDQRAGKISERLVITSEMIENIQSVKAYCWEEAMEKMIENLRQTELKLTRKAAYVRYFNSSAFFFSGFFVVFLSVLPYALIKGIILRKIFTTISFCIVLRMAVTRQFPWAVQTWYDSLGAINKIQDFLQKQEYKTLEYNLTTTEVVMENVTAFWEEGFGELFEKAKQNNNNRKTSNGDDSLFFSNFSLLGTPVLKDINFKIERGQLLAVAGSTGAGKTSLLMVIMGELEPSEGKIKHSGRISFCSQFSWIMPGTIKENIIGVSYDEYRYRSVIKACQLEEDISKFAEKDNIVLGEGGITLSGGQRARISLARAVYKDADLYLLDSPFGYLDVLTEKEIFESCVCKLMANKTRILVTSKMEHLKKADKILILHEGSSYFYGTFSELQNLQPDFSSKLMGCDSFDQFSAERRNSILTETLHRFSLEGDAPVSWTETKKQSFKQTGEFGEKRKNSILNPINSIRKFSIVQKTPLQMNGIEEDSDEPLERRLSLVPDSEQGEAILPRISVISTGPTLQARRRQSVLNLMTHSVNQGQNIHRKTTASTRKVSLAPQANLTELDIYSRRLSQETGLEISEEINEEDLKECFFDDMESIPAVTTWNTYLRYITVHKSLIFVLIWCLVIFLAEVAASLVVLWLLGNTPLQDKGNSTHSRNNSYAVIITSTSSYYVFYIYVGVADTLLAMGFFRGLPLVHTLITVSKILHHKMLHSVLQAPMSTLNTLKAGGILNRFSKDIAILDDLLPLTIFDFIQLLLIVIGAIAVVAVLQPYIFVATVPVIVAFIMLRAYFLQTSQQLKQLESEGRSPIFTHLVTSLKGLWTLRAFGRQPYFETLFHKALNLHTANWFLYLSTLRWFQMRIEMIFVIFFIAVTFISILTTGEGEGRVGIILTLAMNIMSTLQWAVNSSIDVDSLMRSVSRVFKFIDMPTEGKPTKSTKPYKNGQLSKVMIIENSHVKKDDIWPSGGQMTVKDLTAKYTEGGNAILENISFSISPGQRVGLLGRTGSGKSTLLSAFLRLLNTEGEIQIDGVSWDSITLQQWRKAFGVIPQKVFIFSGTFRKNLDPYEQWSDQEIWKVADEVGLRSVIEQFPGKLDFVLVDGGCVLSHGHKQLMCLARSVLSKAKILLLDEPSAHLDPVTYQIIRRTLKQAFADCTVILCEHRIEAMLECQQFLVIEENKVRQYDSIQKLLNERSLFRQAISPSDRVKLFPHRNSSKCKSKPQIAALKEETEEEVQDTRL
Experimental: The preliminary activity of these three hits was further evaluated in secondary screening assays. Although featuring the same common scaffold, in order to possibly discriminate the most interesting hit for further structural investigations, the compounds belonging to the family of tetrahydro-γ-carbolines were tested on more relevant cell models. First, the hits were tested on an immortalized bronchial epithelial cell line (CFBE41o-) stably expressing F508del-CFTR and HS-YFP. […]
(§1) Prior assay, cells were washed with phosphate-buffered saline (PBS) containing (in mM) 137 NaCl, 2.7 KCl, 8.1 Na2HPO4, 1.5 KH2PO4, 1 CaCl2, and 0.5 MgCl2. […] Cells were then transferred to microplate readers (FluoStar Optima; BMG Labtech, Offenburg, Germany) for CFTR activity determination. The plate readers were equipped with high-quality excitation (HQ500/20X: 500 ± 10 nm) and emission (HQ535/30M: 535 ± 15 nm) filters for YFP (Chroma Technology). The assay consisted of a continuous 14 s fluorescence reading, 2 s before and 12 s after injection of 165 μL of an iodide-containing solution (PBS with Cl^– replaced by I^–; final I^– concentration 100 mM). Data were normalized to the initial background-subtracted fluorescence. […]

CFTR = molecular target: T1, CFTR (Homo sapiens, UniProt P13569); experiment: Short-circuit current recordings on primary HBE cells from non-CF individuals
T1 construct: primary human bronchial epithelial (HBE) cells, from non-CF individuals; endogenous in cells; host or cells: primary human bronchial epithelial cells from non-CF individuals
T1 sequence (P13569 whole entry): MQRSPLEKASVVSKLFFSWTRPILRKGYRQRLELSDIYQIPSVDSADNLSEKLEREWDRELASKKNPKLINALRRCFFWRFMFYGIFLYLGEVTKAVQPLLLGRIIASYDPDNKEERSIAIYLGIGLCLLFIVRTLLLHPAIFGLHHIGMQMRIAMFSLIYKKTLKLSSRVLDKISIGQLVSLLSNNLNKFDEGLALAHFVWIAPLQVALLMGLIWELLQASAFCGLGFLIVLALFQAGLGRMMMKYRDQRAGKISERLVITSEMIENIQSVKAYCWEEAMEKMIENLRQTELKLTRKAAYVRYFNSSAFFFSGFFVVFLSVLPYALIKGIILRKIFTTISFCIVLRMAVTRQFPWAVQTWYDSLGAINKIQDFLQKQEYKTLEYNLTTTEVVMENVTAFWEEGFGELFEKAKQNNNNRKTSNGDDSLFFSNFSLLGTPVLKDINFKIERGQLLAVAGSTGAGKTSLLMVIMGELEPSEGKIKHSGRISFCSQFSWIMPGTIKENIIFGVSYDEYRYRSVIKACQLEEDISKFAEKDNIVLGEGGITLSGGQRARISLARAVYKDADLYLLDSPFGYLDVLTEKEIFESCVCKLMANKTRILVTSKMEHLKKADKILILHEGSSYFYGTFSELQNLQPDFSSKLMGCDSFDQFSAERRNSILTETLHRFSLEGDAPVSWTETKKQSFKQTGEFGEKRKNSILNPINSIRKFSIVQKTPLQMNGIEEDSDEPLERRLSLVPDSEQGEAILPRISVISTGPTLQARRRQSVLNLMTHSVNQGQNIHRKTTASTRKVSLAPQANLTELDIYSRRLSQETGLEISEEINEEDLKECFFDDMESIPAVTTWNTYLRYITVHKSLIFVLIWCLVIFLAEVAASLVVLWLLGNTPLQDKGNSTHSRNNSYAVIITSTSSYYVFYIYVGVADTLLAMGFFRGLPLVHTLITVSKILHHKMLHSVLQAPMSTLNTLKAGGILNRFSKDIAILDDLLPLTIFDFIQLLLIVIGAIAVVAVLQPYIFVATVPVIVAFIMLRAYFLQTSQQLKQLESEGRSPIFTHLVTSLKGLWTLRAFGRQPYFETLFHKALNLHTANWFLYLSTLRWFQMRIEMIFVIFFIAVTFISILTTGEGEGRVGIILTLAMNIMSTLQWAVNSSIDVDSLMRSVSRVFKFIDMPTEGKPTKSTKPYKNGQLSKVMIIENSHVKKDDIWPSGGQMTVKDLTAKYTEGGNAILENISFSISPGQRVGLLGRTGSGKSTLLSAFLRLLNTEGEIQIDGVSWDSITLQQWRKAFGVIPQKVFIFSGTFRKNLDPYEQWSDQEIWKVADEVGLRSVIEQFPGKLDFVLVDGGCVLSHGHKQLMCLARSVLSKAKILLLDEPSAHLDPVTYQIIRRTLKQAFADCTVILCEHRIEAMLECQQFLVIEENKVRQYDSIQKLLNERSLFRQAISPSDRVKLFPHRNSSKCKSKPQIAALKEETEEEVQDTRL
Text: Subsequently, the ability of compounds to elicit CFTR-mediated chloride secretion was verified on primary human bronchial epithelial (HBE) cells, from non-CF individuals, in short-circuit current experiments. In this respect, it should be noticed that potentiators are also able to stimulate wild-type CFTR, provided that a submaximal cAMP-dependent stimulation is applied.[20],[22] Accordingly, cells were stimulated with a submaximal concentration of the cAMP analogue, CPT-cAMP, followed by increasing concentrations of the potentiator hit.[20],[22]
Finally, potentiator 39 and VX-770 were further evaluated in primary HBE cells from non-CF individuals, using short-circuit current measurements, to assess the ability of compounds to maximally activate CFTR function in the presence of a submaximal cAMP stimulation. After the addition of amiloride to inhibit sodium absorption through the ENaC channel, the potentiators were added at the maximal effective concentration (1 μM) after which epithelia were stimulated with a submaximal concentration of CPT-cAMP (5 μM), followed by a maximal concentration of the cAMP analogue (100 μM) (Figure 8). We then measured the extent of CFTR-mediated chloride current elicited by submaximal cAMP stimulation in the presence of a potentiator and compared it to total CFTR-mediated chloride current, determined as the current inhibited by CFTR inhibitor-172. In parallel, other epithelia were stimulated only with the two concentrations of the cAMP analogue, in the absence of a potentiator.
Primary bronchial epithelial cells were cultured as previously described.[58] In brief, epithelial cells were cultured in a serum-free medium (LHC9 mixed with RPMI 1640, 1:1) supplemented with hormones and supplements to support cell number amplification. Then, the cells were seeded at high density on porous membranes (500,000 cells for 1 cm^2 Snapwell inserts, for Ussing chamber studies; 200,000 cells for 0.33 cm^2 Mini-Transwell inserts, for TEER/PD measurements). After 24 h, the serum-free medium was replaced with Dulbecco’s modified Eagle’s medium (DMEM)/Ham’s F12 containing 2% fetal bovine serum (FBS) plus hormones and supplements. Differentiation of cells to form a tight epithelium was monitored by measuring transepithelial electrical resistance and potential difference with an epithelial voltohmmeter (EVOM1, World Precision Instruments). […]
Differentiated bronchial epithelia on Snapwell inserts were mounted in a Ussing chamber with internal fluid circulation. […] The short-circuit current was recorded with a PowerLab 4/25 (ADInstruments) analog-to-digital converter connected to a personal computer.

G551D-CFTR = molecular target: T2, G551D-CFTR (Homo sapiens, UniProt P13569, G551D); experiment: HS-YFP-based assay on G551D-CFTR FRT cells
T2 construct: expressed in transfected cells
T2 sequence (P13569 whole entry G551D): as the sequence (P13569 whole entry) above, with G551D counted along it
Experimental: The primary hits were confirmed by testing them at different concentrations, in order to extrapolate the dose–response relationship. First, we focused on the F508del mutant. The compounds were tested in the low micromolar range, in the presence of forskolin (10 μM), on F508del-CFTR FRT cells following rescue of the trafficking defect by low-temperature incubation, as done for the primary screening. The most interesting hits were subsequently tested for their ability to overcome the more severe gating defect of pure class III mutant using FRT cells stably expressing G551D-CFTR (Figure 3B).
A small set of selected potentiators with good efficacy and potency on F508del-CFTR FRT cells (Figure 6A) was also tested at three concentrations on G551D-CFTR FRT cells (Figure 6B).
FRT cells stably expressing mutant F508del-CFTR or G551D-CFTR and the halide-sensitive yellow fluorescent protein (HS-YFP) YFP-H148Q/I152L and CFBE41o-cells stably expressing F508del-CFTR and HS-YFP were generated as previously described.[21],[57] FRT cells were cultured using the Coon’s modification of Ham’s F12 medium, while CFBE41o-cells were cultured in the modified Eagle’s medium. Media were supplemented with 10% fetal calf serum, 2 mM L-glutamine, 100 U/mL of penicillin, and […] of streptomycin. […]
as §1

| SMILES | dose-dependent activation of mutant CFTR (F508del-CFTR) | comparison of effectiveness of potentiators (CFTR; 1 μM for both compounds, Figure 8B) | increase of the fraction of CFTR-mediated chloride current activated by submaximal cAMP stimulation (CFTR; potentiator 1 μM, CPT-cAMP 5 μM, versus no potentiator) | activity compared to VX-770 on G551D-CFTR FRT cells (G551D-CFTR; at 0.56 μM) | activity compared to VX-770 on G551D-CFTR FRT cells (G551D-CFTR; at the highest concentrations (20–3.3 μM)) | potency ranking on G551D-CFTR FRT cells (G551D-CFTR; tested at three concentrations, Figure 6B) |
| --- | --- | --- | --- | --- | --- | --- |
| COc1ccc2[nH]c3c(c2c1)CN(C(=O)c1cc(C(F)(F)F)[nH]n1)CC3 [Compound 3, (8-Methoxy-1,3,4,5-tetrahydropyrido[4,3-b]indol-2-yl)-[5-(trifluoromethyl)-1H-pyrazol-3-yl]methanone] | the most effective |  |  |  |  |  |
| Cc1ccc(F)c2[nH]c3c(c12)CN(C(=O)c1cc(C(F)(F)F)[nH]n1)[C@H](C)C3 [Compound 39, (R)-(6-Fluoro-3,9-dimethyl-1,3,4,5-tetrahydro-2H-pyrido[4,3-b]indol-2-yl)-(5-(trifluoromethyl)-1H-pyrazol-3-yl)methanone] |  | similarly effective | more than 2 fold | decrease in activity | comparable pattern of activity | the most potent one |
